Like-named read-outs stand apart in the source and are kept apart here.
What was measured:
[1] = target: human voltage-gated calcium channel subunit α2δ-1 (Homo sapiens, UniProt P54289)
[2] = target: Peptide 1 (P1; SEQ ID No. 4) comprising the gabapentin/pregabalin binding site of α2δ-1 (Homo sapiens, UniProt P54289); assay: SPR binding to immobilized synthetic peptide P1; settings: RU400, subtracted from blank dextran reference
Method: Thiol coupling allows for uniform surface presentation of the immobilized peptide molecules and provides freedom to adopt a steric conformation that is determined by the amino acid sequence of the peptide.
Sensorgram running conditions were: • Compound stock solution: 50 mM, DMSO • Compound working stock dilution: 0.5-2 mM • Running buffer: HBS-P • Flow rate: 30 μl/min

[3] = target: truncated recombinant α2δ-1 protein, Construct 1 (SEQ ID No. 2) (Homo sapiens, UniProt P54289); assay: SPR binding of analyte to immobilized truncated α2δ-1 construct 1; settings: RU400, subtracted from human IgG reference; NVA1309 at increasing concentrations, pregabalin at 500 μM
α2δ-1 = settings: partial sciatic ligation neuropathy, α2δ-1−/− mice; cited from earlier work
[4] = target: T1, α2δ-1 (RRR mutated to RRA) (Mus musculus, UniProt O08532, R241A); settings: knock-in mutant mouse; cited from earlier work
T1 construct: host or cells: knock-in mutant mouse (in vivo)

[5] = target: T2, truncated recombinant α2δ-1 protein, Construct 2 (SEQ ID No. 3) (Homo sapiens, UniProt P54289); assay: SPR binding of analyte to immobilized truncated α2δ-1 construct 2; settings: RU400, subtracted from human IgG reference; NVA1309 at increasing concentrations, pregabalin at 500 μM
T2 construct: His tag; GST; made in house; host or cells: CHO cells (transient expression)
Method: Binding experiments were carried out using Surface Plasmon Resonance (SPR) technology in a Biacore instrument. Recombinant construct 1 and construct 2 were immobilized on the surface of two different flow cells (FC2 and FC3, respectively) of a Biacore CM5 optical sensor chip by covalent amine coupling chemistry, using the Biacore amine coupling kit and following the Biacore amine coupling protocol. Human IgG was immobilized to the reference flow cell FC1 as intra-assay background binding control.

[6] = SPR binding of NVA1309 to immobilized P4-derived peptides, RU400 as % of peptide P4; settings: for % BINDING (RU400) 0.5 mM: NVA1309 0.5 mM; for % BINDING (RU400) 1 mM: NVA1309 1 mM; for % BINDING (RU400) 2 mM: NVA1309 2 mM; for % BINDING (RU400) mean: mean of 0.5, 1 and 2 mM NVA1309; for NVA1309 binding to the peptide, in words: compared with peptide P4
Method: (§1) This peptide was covalently coupled via the carboxy-terminal cysteine to the surface (FC2) of a Biacore CM5 optical sensor chip as described in Example 4 following the Biacore thiol coupling procedure. Compound NVA1309 was injected as analyte at increasing concentrations and the binding reaction was monitored by generation of real time sensorgrams, presented as subtracted curves from the blank FC1 dextran reference surface (FIGS. 14A & 14B).
Sensorgram running conditions were: • Compound stock solution: 50 mM, Dimethyl sulfoxide (DMSO) • Compound working dilution: 0.5-2 mM • Running buffer: HBS-P • Flow rate: 30 μl/min
This peptide was covalently coupled via the carboxy-terminal cysteine to the surface (FC3) of a new Biacore CM5 optical sensor chip using the Biacore thiol coupling procedure. Peptide P4 was immobilized on FC2 as a positive reference control, flow cell FC1 was left blank as negative background binding reference. Compound NVA1309 was injected as analyte at increasing concentrations and the binding reaction was monitored by generation of real time sensorgrams as described in the previous examples and presented as subtracted curves from the blank FC1 dextran reference surface.
A series of three concentration SPR binding experiments were carried out with peptides derived from the peptide P4 sequence (SEQ ID No. 7). These peptides were designed in order to determine the significance of single peptide 4-contained (P4) amino acid residues in binding compound NVA1309. The following peptides were prepared:
Synthetic peptides were covalently coupled to optical sensor chips via the terminal cysteines following the Biacore thiol coupling procedure and SPR binding experiments were run exactly under the same conditions as described in the previous examples. Relative binding strengths of the single peptides were read from three concentration RU400 values and calculated as percentage binding of the peptide P4 reference (P4: RU400=100%). […]

[7] = target: T3, α2δ-1 recombinant peptide (SEQ ID No. 5) containing the VGCC_α2 domain (Homo sapiens, UniProt P54289); settings: Langmuir 1:1 fit, single concentration data
Method: (§2) The equilibrium dissociation constant KD=kd/ka was calculated and provides a single concentration estimate of the compound target binding affinity.

[8] = target: T3, α2δ-1 recombinant peptide (SEQ ID No. 5) containing the VGCC_α2 domain; assay: biochemical
Method: as §2

[9] = target: T4, Peptide P3 (SEQ ID No. 6), carboxy terminal region of the VGGC_α2 domain of α2δ-1 (Homo sapiens, UniProt P54289); assay: SPR binding to immobilized synthetic peptide P3; settings: RU400, subtracted from blank dextran reference; 0.5-2 mM
T4 construct: three glycines and a terminal cysteine (Peptide 3); made in house; host or cells: chemical synthesis
Description: A synthetic peptide was constructed, representing the carboxy terminal of the VGGC_α2 domain of α2δ-1, carboxy-terminally fused to a flexible spacer consisting of three glycines and a terminal cysteine (Peptide 3; SEQ ID No. 6):
as §1, with “using the Biacore Thiol Coupling Kit” for “as described in Example 4”, “procedure. This strategy allows for uniform surface presentation of the immobilized peptide molecules and provides freedom to adopt a steric conformation determined by the amino acid sequence of the peptide.” for “procedure.”, “(see FIG. 13A).” for “(FIGS. 14A & 14B).”
Sensorgram running conditions were: • Compound stock solution: 50 mM, Dimethyl sulfoxide (DMSO) DMSO • Compound working dilution: 0.5-2 mM • Running buffer: HBS-P (Biacore) • Flow rate: 30 μl/min

[10] = target: T5, α2δ-1 recombinant peptide (SEQ ID No. 5) comprising the VGCC_α2 domain (Homo sapiens, UniProt P54289); assay: SPR binding to immobilized α2δ-1 recombinant peptide; settings: RU400, subtracted from BSA reference; 0.5-2 mM
T5 construct: purchased CUSABIO CSB-YP004407HU; host or cells: yeast
Description: The α2δ-1 recombinant peptide comprising the VGGC_α2 domain and containing a single cysteine near the carboxy terminus, was immobilized on the surface of a Biacore CM5 optical sensor chip using the Biacore Thiol Coupling Kit following the covalent thiol coupling chemistry. This immobilization process provides a sterically more uniform attachment of the ligand molecules to the sensor chip surface than the randomized amine coupling procedure. Bovine serum albumin (BSA) was immobilized to the reference flow cell FC1 as intra-assay background binding control. Compound NVA1309 was injected as analyte at increasing concentrations and the binding reaction was monitored by generation of real time sensorgrams, presented as subtracted curves from the BSA reference (see […]).
Sensorgram running conditions were: • Compound stock solution: 50 mM, Dimethyl sulfoxide (DMSO) DMSO • Compound working dilution: 0.5-2 mM • Running buffer: HBS-P • Flow rate: 30 μl/min

[11] = P4 RU400=100%, P4 scanning (Example 6)

T3 sequence (P54289 528-668): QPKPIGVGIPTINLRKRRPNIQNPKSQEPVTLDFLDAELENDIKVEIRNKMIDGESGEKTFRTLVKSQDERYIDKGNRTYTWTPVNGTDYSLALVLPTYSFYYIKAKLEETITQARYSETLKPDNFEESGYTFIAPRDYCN
T2 sequence (P54289 with tags, fused parts or gaps): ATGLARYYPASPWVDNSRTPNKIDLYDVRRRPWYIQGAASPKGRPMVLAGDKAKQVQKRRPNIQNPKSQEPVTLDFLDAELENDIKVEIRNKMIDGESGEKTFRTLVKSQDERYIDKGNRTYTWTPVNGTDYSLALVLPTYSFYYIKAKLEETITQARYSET
truncated recombinant α2δ-1 protein, Construct 1 (SEQ ID No. 2), sequence (P54289 with tags, fused parts or gaps): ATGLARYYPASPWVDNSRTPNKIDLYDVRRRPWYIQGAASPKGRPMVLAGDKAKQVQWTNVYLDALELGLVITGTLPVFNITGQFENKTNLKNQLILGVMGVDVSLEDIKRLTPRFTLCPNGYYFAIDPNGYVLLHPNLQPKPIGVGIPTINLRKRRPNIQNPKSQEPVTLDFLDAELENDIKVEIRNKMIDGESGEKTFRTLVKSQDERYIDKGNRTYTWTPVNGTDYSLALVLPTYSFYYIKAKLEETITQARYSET
Peptide 1 (P1; SEQ ID No. 4) comprising the gabapentin/pregabalin binding site of α2δ-1, sequence (P54289 with tags, fused parts or gaps limits assumed): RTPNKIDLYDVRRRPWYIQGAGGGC
human voltage-gated calcium channel subunit α2δ-1, sequence (P54289 25-1103): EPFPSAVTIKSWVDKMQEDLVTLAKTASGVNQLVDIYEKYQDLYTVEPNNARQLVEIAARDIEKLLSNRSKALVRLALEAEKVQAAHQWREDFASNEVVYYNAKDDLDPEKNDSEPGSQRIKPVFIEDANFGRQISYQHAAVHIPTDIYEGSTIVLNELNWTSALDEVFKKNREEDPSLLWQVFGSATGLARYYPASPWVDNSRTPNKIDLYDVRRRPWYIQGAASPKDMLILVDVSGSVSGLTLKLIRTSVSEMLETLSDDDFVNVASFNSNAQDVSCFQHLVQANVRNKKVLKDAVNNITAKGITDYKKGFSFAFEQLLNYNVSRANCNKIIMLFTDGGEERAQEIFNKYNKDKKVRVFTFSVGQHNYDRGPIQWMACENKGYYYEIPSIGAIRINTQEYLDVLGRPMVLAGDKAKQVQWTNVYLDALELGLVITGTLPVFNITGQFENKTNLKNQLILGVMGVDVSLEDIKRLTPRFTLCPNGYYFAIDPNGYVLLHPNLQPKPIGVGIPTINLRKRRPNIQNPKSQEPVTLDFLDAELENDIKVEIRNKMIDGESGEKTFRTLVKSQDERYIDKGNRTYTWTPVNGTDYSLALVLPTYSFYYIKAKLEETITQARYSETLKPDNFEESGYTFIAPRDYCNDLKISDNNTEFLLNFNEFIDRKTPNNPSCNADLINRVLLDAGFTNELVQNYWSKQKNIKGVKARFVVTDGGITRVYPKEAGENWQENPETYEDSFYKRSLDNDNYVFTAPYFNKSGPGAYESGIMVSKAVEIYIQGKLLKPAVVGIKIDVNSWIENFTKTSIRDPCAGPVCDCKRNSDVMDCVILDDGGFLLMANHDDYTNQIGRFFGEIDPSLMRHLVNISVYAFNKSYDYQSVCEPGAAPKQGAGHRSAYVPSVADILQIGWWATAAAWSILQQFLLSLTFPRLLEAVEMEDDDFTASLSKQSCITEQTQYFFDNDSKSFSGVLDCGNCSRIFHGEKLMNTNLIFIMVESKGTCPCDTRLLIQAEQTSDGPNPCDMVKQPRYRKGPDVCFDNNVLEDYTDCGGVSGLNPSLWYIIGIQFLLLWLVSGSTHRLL
T4 sequence (P54289 with tags, fused parts or gaps limits assumed): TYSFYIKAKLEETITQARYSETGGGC
T5 sequence (P54289 528-668): as the sequence (P54289 528-668) above
T1 sequence (O08532 25-1103 R241A): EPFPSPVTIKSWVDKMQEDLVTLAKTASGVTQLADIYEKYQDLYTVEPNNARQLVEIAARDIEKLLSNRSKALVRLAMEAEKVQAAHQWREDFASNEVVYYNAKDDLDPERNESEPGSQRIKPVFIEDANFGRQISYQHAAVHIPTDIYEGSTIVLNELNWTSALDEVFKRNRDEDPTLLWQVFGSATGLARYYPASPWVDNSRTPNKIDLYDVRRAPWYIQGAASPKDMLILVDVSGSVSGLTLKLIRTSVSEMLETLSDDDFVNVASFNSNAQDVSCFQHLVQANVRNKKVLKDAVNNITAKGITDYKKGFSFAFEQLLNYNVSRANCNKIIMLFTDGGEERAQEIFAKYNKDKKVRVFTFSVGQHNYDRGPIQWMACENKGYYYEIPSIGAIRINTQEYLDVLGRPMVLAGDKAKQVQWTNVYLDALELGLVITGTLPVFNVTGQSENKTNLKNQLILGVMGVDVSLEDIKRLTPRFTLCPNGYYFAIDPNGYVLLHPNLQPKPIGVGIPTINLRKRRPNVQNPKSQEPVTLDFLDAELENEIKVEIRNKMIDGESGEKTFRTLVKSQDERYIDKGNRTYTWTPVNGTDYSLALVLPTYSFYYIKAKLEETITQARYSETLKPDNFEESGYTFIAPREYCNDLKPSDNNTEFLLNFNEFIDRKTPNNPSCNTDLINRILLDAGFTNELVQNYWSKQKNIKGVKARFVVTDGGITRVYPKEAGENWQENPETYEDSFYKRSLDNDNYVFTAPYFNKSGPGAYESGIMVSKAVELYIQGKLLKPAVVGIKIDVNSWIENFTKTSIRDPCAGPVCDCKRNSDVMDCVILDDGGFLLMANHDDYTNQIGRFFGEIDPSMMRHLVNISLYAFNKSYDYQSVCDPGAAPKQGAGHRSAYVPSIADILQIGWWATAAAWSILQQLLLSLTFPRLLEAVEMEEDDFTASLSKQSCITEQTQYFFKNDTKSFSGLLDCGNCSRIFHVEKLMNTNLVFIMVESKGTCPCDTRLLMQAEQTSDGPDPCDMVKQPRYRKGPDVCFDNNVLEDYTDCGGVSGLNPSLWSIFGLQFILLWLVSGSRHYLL
T1 sequence (O08532 958-1103 partner limits assumed): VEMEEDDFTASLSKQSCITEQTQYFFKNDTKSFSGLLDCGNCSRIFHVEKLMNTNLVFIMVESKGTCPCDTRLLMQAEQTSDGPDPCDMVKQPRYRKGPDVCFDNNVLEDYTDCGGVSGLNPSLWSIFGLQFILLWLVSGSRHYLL

Compound: CC(C)C[C@H](CN)CC(=O)O [Pregabalin, reference compound]
- IC50 ([1]; read-out: IC50 of binding; recombinant membranes over-expressing the human α2δ-1 subunit (PCT/EP2014/077937); cited from earlier work): 23 nM
- SPR binding to immobilized peptide P1 [2]: no positive SPR signal
- SPR binding to immobilized construct 1 [3]: lack of pregabalin binding
- ability to alleviate mechanical hypersensitivity (α2δ-1): lost
- alleviating chronic pain resulting from nerve injury [4]: no longer effective
- SPR binding to immobilized construct 2 [5]: lack of pregabalin binding

Compound: IKAKLEETITQAGGGC (Peptide P4, carboxy-terminal VGGC_a2 region (II) + GGGC anchor) [carboxy-terminal VGGC_α2 region (II) + GGGC anchor, positive control]
- % BINDING (RU400) 0.5 mM ([6]; P4=100%, Example 7): 100%
- % BINDING (RU400) 0.5 mM [6, 11]: 100%
- % BINDING (RU400) 1 mM ([6]; P4=100%, Example 7): 100%
- % BINDING (RU400) 1 mM [6, 11]: 100%
- % BINDING (RU400) 2 mM ([6]; P4=100%, Example 7): 100%
- % BINDING (RU400) 2 mM [6, 11]: 100%
- % BINDING (RU400) mean ([6]; P4=100%, Example 6): 100%
- % BINDING (RU400) mean ([6]; P4=100%, Example 7): 100%

Compound: ETITQARYSETLKPGGGC (Peptide P6, carboxy-terminal VGGC_a2 region (IV) + GGGC anchor) [C-terminal P4 extension + GGGC anchor]
- % BINDING (RU400) 0.5 mM [6, 11]: 9%
- % BINDING (RU400) 1 mM [6, 11]: 7%
- % BINDING (RU400) 2 mM [6, 11]: 9%
- NVA1309 binding to the peptide, in words [6]: significant loss of NVA1309 binding capacity
- % BINDING (RU400) mean ([6]; P4=100%, Example 6): 8.3%

Compound: IKAKGGGC (Peptide P15, P4 analogue containing only the amino-terminal part of P4 + GGGC anchor)
- % BINDING (RU400) 0.5 mM ([6]; P4=100%, Example 7): 19%
- % BINDING (RU400) 1 mM ([6]; P4=100%, Example 7): 25%
- % BINDING (RU400) 2 mM ([6]; P4=100%, Example 7): 26%
- % BINDING (RU400) mean ([6]; P4=100%, Example 7): 23%

Compound: CCC1=C[C@@H]2[C@H](C1)C[C@]2(CN)Cc1nnn[nH]1 [NVA1309, [(1R,5S,6S)-3-Ethyl-6-(1H-tetrazol-5-ylmethyl)-6-bicyclo[3.2.0]hept-3-enyl]methanamine]
- kd [7]: 0.00061 s⁻¹
- IC50 ([1]; recombinant membranes over-expressing the human α2δ-1 subunit (PCT/EP2014/077937); read-out: IC50 of binding; cited from earlier work): 2.1 nM
- Kd [8]: 33.8 nM
- kon ([8]; read-out: ka): 18000 M⁻¹ s⁻¹
- SPR binding to immobilized peptide P1 [2]: concentration-dependent binding
- SPR binding to immobilized construct 1 [3]: concentration-dependent binding
- SPR binding to immobilized peptide P3 [9]: concentration dependent binding
- SPR binding to immobilized construct 2 [5]: concentration-dependent binding
- SPR binding to immobilized α2δ-1 recombinant peptide [10]: concentration-dependent binding

Compound: IKAKLAATITQAGGGC (Peptide P11, P4 analogue - negatively charged side chains A-substituted + GGGC anchor)
- % BINDING (RU400) 0.5 mM [6, 11]: 23%
- % BINDING (RU400) 1 mM [6, 11]: 22%
- % BINDING (RU400) 2 mM [6, 11]: 25%
- % BINDING (RU400) mean ([6]; P4=100%, Example 6): 23.3%

Compound: AQTITEELKAKIGGGC (Peptide P8, Inverse peptide P4 + GGGC anchor)
- % BINDING (RU400) 0.5 mM [6, 11]: 3%
- % BINDING (RU400) 1 mM [6, 11]: 2%
- % BINDING (RU400) 2 mM [6, 11]: 2%
- NVA1309 binding to the peptide, in words [6]: lack of binding
- % BINDING (RU400) mean ([6]; P4=100%, Example 6): 2.3%

Compound: LRVRIDDSLSNVGGGC (Peptide P9, P4 analogue - all aa substituted by most similar ones + GGGC anchor)
- % BINDING (RU400) 0.5 mM [6, 11]: 1%
- % BINDING (RU400) 1 mM [6, 11]: 1%
- % BINDING (RU400) 2 mM [6, 11]: 2%
- % BINDING (RU400) mean ([6]; P4=100%, Example 6): 1.3%

Compound: IAAALEETITQAGGGC (Peptide P10, P4 analogue - positively charged side chains A-substituted + GGGC anchor)
- % BINDING (RU400) 0.5 mM [6, 11]: 4%
- % BINDING (RU400) 1 mM [6, 11]: 4%
- % BINDING (RU400) 2 mM [6, 11]: 4%
- % BINDING (RU400) mean ([6]; P4=100%, Example 6): 4%

Compound: IKAKLEEAIAQAGGGC (Peptide P12, P4 analogue - polar side chains A-substituted + GGGC anchor)
- % BINDING (RU400) 0.5 mM [6, 11]: 14%
- % BINDING (RU400) 1 mM [6, 11]: 15%
- % BINDING (RU400) 2 mM [6, 11]: 17%
- % BINDING (RU400) mean ([6]; P4=100%, Example 6): 15.3%

Compound: IKAALEETITQAGGGC (Peptide P14, P4 analogue with Lysine in position 4 (K) substituted by Alanine (A) + GGGC anchor) [P4 analogue, K4 A-substituted + GGGC anchor]
- % BINDING (RU400) 0.5 mM ([6]; P4=100%, Example 7): 0%
- % BINDING (RU400) 1 mM ([6]; P4=100%, Example 7): 11%
- % BINDING (RU400) 2 mM ([6]; P4=100%, Example 7): 6%
- % BINDING (RU400) mean ([6]; P4=100%, Example 7): 6%

Compound: IAAKLEETITQAGGGC (Peptide P13, P4 analogue with Lysine in position 2 (K) substituted by Alanine (A) + GGGC anchor) [P4 analogue, K2 A-substituted + GGGC anchor]
- % BINDING (RU400) 0.5 mM ([6]; P4=100%, Example 7): 133%
- % BINDING (RU400) 1 mM ([6]; P4=100%, Example 7): 88%
- % BINDING (RU400) 2 mM ([6]; P4=100%, Example 7): 90%
- % BINDING (RU400) mean ([6]; P4=100%, Example 7): 104%

— patent US20220002359A1, “Voltage-Gated Calcium Channel Auxilliary Subunit Alpha 2 Delta and Uses Thereof” (Novassay, S.A., priority 2017, published 2022)
